pEC50, pIC50: −log10 of the molar value. Read-outs that look alike come from different tables or passages of the source.
Key:
progesterone receptor [1] = biological target: T1, progesterone receptor (Homo sapiens, UniProt P06401); experiment: PR transactivation assay, antagonistic activity (PR luciferase reporter); format: cell-based; details: for Ratio of IC50's: PR agonism / PR antagonism
T1 sequence (P06401 165-933 limits assumed): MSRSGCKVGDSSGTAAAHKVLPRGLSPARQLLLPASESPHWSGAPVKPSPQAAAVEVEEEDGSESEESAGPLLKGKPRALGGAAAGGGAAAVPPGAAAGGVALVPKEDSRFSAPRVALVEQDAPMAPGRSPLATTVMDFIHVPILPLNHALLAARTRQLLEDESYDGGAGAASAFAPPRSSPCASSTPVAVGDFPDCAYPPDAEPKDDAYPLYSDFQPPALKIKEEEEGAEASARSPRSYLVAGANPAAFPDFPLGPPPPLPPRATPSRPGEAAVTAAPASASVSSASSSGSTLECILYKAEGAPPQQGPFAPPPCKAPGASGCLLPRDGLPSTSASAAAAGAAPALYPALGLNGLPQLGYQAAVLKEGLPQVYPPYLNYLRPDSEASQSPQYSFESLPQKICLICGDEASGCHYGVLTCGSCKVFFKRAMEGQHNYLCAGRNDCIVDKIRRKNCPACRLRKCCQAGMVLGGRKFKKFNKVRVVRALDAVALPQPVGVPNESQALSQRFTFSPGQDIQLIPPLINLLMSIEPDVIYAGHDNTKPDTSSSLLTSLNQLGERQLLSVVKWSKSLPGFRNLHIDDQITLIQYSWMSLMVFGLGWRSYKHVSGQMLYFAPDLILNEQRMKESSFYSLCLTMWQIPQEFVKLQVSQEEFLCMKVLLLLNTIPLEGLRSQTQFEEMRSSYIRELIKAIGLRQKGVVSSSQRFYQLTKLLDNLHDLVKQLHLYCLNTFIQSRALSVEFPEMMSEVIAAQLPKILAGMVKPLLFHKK
Procedure: (§1) Transactivation Assay for Progesterone Agonist and Antagonistic Activity (See Table 1).
(§2) Experimental: PR transactivation studies was carried out in human breast cancer (T47D) cells, grown in RPMI medium without phenol red and 5% charcoal stripped fetal bovine serum, transiently transfected with PR luciferase reporter (CCS-6043L signal reporter assay kit, Qiagen). The cells were stimulated R5020 as PR agonist and treated in the presence or absence of the tested compounds for 24 hours.

guinea pig = experiment: Guinea pig model (ovulation inhibition, uterine weight, vagina, ovary, classification); format: in vivo; details: for Classification: guinea pig model; for ER-/PR balance vagina. / Ovary (CL): at max. dose (10.mg/day s.c.); for Ovary (CL): CL = corpora lutea
progesterone receptor [2] = biological target: T2, progesterone receptor (Homo sapiens, UniProt P06401); experiment: PR transactivation assay, agonistic activity (PR luciferase reporter); format: cell-based; details: T47D cells
T2 sequence (P06401 679-933 limits assumed): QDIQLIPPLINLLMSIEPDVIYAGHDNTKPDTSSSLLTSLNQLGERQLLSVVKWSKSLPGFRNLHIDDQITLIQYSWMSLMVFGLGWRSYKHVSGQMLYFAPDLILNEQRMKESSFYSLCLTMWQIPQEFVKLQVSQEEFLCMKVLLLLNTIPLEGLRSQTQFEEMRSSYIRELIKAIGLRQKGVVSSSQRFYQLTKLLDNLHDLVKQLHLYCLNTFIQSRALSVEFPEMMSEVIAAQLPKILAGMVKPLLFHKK
Procedure: as §1
as §2, with “hours. The effect was calculated using dual luciferase assay kit (Promega, WI)) based on RU486 as full antagonist and R5020 as agonist for progesterone receptor.” for “hours.”

[3] = system: estradiol-primed immature female rabbits; experiment: McPhail and anti-McPhail tests in rabbits; format: in vivo, rabbit; details: for antiprogestational activity (anti-McPhail test): immature female rabbit
Description: The McPhail test in the immature female rabbit is a well-established model to test progestatational and antiprogestational activity [McPhail 1934).

[4] = T47D cells, stimulant R5020, read-out: IC50 Average of 2 expts
[5] = Table 2 summary, read-out: PR antagonism (IC50)
[6] = stimulant R5020, read-out: EC50
[7] = estradiol-primed immature female rabbit

| Compound | Ratio of IC50's (progesterone receptor [1]) | Antagonist rel to RU486 (%) (progesterone receptor [1]; T47D cells, stimulant R5020) | pIC50 (progesterone receptor [1]; [4]) | pIC50 (progesterone receptor [1]; [5]) | Agonist rel to R5020 (%) (progesterone receptor [2]) | pEC50 (progesterone receptor [2]; [6]) | pEC50 (progesterone receptor [2]; control compound R5020, read-out: Control EC50) | Classification (guinea pig) | Uterine Weight at max. dose (10.mg/day s.c.) (guinea pig; guinea pig) | ER-/PR balance vagina. (guinea pig; guinea pig) | Ovary (CL) (guinea pig; guinea pig) | progestational activity relative to CDB 2914 ([3]; assumed from McPhail test) | progestational activity (McPhail test) [3, 7] | antiprogestational activity (anti-McPhail test) [3] | ER-/PR balance vagina.: dose at which the dominance is seen (guinea pig; guinea pig) | Ovulation Inhibition (guinea pig; guinea pig) | progestational activity (McPhail test) ([3]; dose of 3 mg/animal/day) |
| --- | --- | --- | --- | --- | --- | --- | --- | --- | --- | --- | --- | --- | --- | --- | --- | --- | --- |
| C=C[C@@H]1CC2C3CCC4=CC(=O)CCC4=C3[C@@H](c3ccc(-n4ccnc4)cc3)C[C@]2(C)C1C(C)=O (stereo partly drawn) [EC347] | 3.5 | 120 | 9.02 | 9.02 | 9.7 | 8.47 | – | mesoprogestin | 1.01 | PR-domin | degenerated | – | – | – | – | – | – |
| CC[C@@H]1CC2C3CCC4=CC(=O)CCC4=C3[C@@H](c3ccc(-n4ccnc4)cc3)C[C@]2(C)C1C(C)=O (stereo partly drawn) [EC346, 11β-{4′-[1′ imidazolyl)phenyl}-16α-ethyl-19-norpregna-4,9-diene-3,20-dione] | – | 378 | 9.52 | – | 0.32 | – | – | mesoprogestin | 0.8 | PR-domin | degenerated | – | – | – | – | – | – |
| CC[C@@H]1CC2C3CCC4=CC(=O)CCC4=C3[C@@H](c3ccc(-c4cccnc4)cc3)C[C@]2(C)C1C(C)=O (stereo partly drawn) [EC-342, 11β-{4′-[3′-pyridinyl)phenyl}-16α-ethyl-19-norpregna-4,9-diene-3,20-dione] | 5.7 | 120 | 9.02 | 9.02 | 7 | 8.29 | – | mesoprogestin | 0.86 | PR-domin | degenerated | – | – | – | – | – | – |
| C=C[C@@H]1CC2C3CCC4=CC(=O)CCC4=C3[C@@H](c3ccc(-c4cccnc4)cc3)C[C@]2(C)C1C(C)=O (stereo partly drawn) [EC344, 11β-{4′-[3′-pyridinyl)phenyl}-16α-ethenyl-19-norpregna-4,9-diene-3,20-dione] | – | 324 | 9.46 | – | 0.32 | – | – | – | – | – | – | – | – | – | – | – | – |
| CC#C[C@]1(O)CC[C@H]2[C@@H]3CCC4=CC(=O)CCC4=C3[C@@H](c3ccc(N(C)C)cc3)C[C@@]21C [RU-486, reference compound] | – | – | – | – | – | – | – | – | (1.26) | – | – | – | – | – | ≧1.0 mg | – | – |
| COCC(=O)[C@@]1(OC(C)=O)CC[C@H]2[C@@H]3CCC4=CC(=O)CCC4=C3[C@@H](c3ccc(N(C)C)cc3)C[C@@]21C [CDB-4124, reference compound] | 30.7 | 300 | 9.15 | 9.15 | 1.4 | 7.60 | – | PR-antagonist | 1.41 | ER-domin. | deg. & | – | did not exhibit any progestational activity | higher antiprogestational activity than RU 486 | – | ≦10.0 mg | – |
| CC(=O)C1[C@H](C)CC2C3CCC4=CC(=O)CCC4=C3[C@@H](c3ccc(-c4cccnc4)cc3)C[C@@]21C (stereo partly drawn) [EC348, 11β-{4′-[3′-pyridinyl)phenyl}-16α-methyl-19-norpregna-4,9-diene-3,20-dione] | 11.8 | 292.7 | 9.41 | 9.41 | 7.0 | 8.34 | – | mesoprogestin | 1.01 | PR-domin | degenerated | – | – | – | – | – | – |
| CC(=O)O[C@]1(C(C)=O)CC[C@H]2[C@@H]3CCC4=CC(=O)CCC4=C3[C@@H](c3ccc(N(C)C)cc3)C[C@@]21C [CDB-2914, reference compound] | 38.4 | 120 | 9.19 | 9.19 | 1.5 | 7.67 | – | blunted PR- | (1.01) | ER-domin. | degenerated | – | – | – | – | – | didn't show any activity at all |
| C[C@]12C[C@H](c3ccc(-n4ccnc4)cc3)C3=C4CCC(=O)C=C4CCC3C1CC[C@@]2(O)C(F)(F)C(F)(F)F (stereo partly drawn) [EC-317] | 217.3 | 255.3 | 9.34 | 9.34 | 0.35 | – | – | – | – | – | – | – | – | – | – | – | – |
| C=C[C@@H]1CC2C3CCC4=CC(=O)CCC4=C3[C@@H](c3ccc(-c4ccoc4)cc3)C[C@]2(C)C1C(C)=O (stereo partly drawn) [EC345, 11β-{4′-[3′-furanyl)phenyl}-16α-ethenyl-19-norpregna-4,9-diene-3,20-dione] | – | 120 | 9.00 | – | 0.65 | 7.31 | – | – | – | – | – | – | – | – | – | – | – |

Second part, led by results:

| Ratio of IC50's (progesterone receptor [1]) | Antagonist rel to RU486 (%) (progesterone receptor [1]; T47D cells, stimulant R5020) | pIC50 (progesterone receptor [1]; [4]) | pIC50 (progesterone receptor [1]; [5]) | Agonist rel to R5020 (%) (progesterone receptor [2]) | pEC50 (progesterone receptor [2]; [6]) | pEC50 (progesterone receptor [2]; control compound R5020, read-out: Control EC50) | Compound | Classification (guinea pig) | Uterine Weight at max. dose (10.mg/day s.c.) (guinea pig; guinea pig) | ER-/PR balance vagina. (guinea pig; guinea pig) | Ovary (CL) (guinea pig; guinea pig) | progestational activity relative to CDB 2914 ([3]; assumed from McPhail test) | progestational activity (McPhail test) [3, 7] | antiprogestational activity (anti-McPhail test) [3] | ER-/PR balance vagina.: dose at which the dominance is seen (guinea pig; guinea pig) | Ovulation Inhibition (guinea pig; guinea pig) | progestational activity (McPhail test) ([3]; dose of 3 mg/animal/day) |
| --- | --- | --- | --- | --- | --- | --- | --- | --- | --- | --- | --- | --- | --- | --- | --- | --- | --- |
| – | – | 9.21 | 9.21 | – | 8.31 | – | COC[C@]1(OC)CC[C@H]2[C@@H]3CCC4=CC(=O)CCC4=C3[C@@H](c3ccc(/C=N/O)cc3)C[C@@]21C [ASOPRISNIL, reference compound] | – | – | – | – | – | – | – | – | – | – |
| 2.2 | 57.1 | 8.68 | 8.68 | 6.4 | 8.32 | – | CC[C@@H]1CC2C3CCC4=CC(=O)CCC4=C3[C@@H](c3ccc(-c4ccoc4)cc3)C[C@]2(C)C1C(C)=O (stereo partly drawn) [EC343, 11β-{4′-[3′-furanyl)phenyl}-16α-ethyl-19-norpregna-4,9-diene-3,20-dione] | – | – | – | – | – | – | – | – | – | – |
| 81.7 | 160 | 9.20 | 9.20 | 0.73 | 7.29 | – | C[C@]12C[C@H](c3ccc(-c4cccnc4)cc3)C3=C4CCC(=O)C=C4CCC3C1CCC21OCCC1=C(F)F (stereo partly drawn) [EC-312] | mesoprogestin | 1.03 | PR-domin. | degenerated | more than ten-fold higher | active both as a progestin agonist and antagonist | active both as a progestin agonist and antagonist | ≧0.1 mg | – | – |
| – | – | – | – | – | – | 9.46 | CCC(=O)[C@@]1(C)CC[C@H]2[C@@H]3CCC4=CC(=O)CCC4=C3CC[C@@]21C [R5020, reference compound] | – | – | – | – | – | – | – | – | – | – |
| 1.0 | 21.8 | 8.30 | 8.30 | 7 | 8.30 | – | C=C1CCOC12CCC1C3CCC4=CC(=O)CCC4=C3[C@@H](c3ccc(-n4ccnc4)cc3)C[C@@]12C (stereo partly drawn) [EC336] | – | – | – | – | – | – | – | – | – | – |
| 28.7 | 342.9 | 9.49 | 9.48 | 3.9 | 8.02 | – | C[C@]12C[C@H](c3ccc(S(C)(=O)=O)cc3)C3=C4CCC(=O)C=C4CC[C@H]3[C@@H]1CC[C@@]2(O)C(F)(F)C(F)(F)F [BAY 1002670, reference compound] | – | – | – | – | – | – | – | – | – | – |

— US9850273B2, “Combination of estrogens plus antiprogestins with significant partial agonistic effect as an effective treatment of menopausal symptoms and for prevention of the occurrence of breast cancer” (Evestra, Inc., priority 2014, dated 2017)
